Test results taken from patent US8969622B2, “Dendritic molecular intracellular transporters and methods of making and using same” (Vanderbilt University, priority 2006, dated 2015).

Test system: human microvascular endothelial cells (HMEC)
Assay: Internalization into human microvascular endothelial cells (HMEC), temperature effect and controls
Assay type: cell-based
Details: 10 uM, 60 min, 37° C.
Procedure: The human microvascular endothelial cells (HMEC) cells were incubated with conjugates (10 uM) for 2.5 min at 4° C. or at 37° C.
The HMEC cells were incubated with conjugates (1 uM) for 30 min at 4° C. or at 37° C.
(b) The HMEC cells were incubated with Boc-protected guanidinylated FD-2 (10 uM) for 60 min at 37° C.
Internalization of FD-1 and FD-2 in mammalian cells was assessed using two different cell lines and a previously described method [Futaki, S.; Nakase, I.; Suzuki, T.; Youjun, Y.; Sugiura, Y. Biochemistry 2002, 41, 7925.] with NIH-3T3 fibroblasts and HMEC (human microvascular endothelial cells) and a Zeiss LSM 510 confocal microscope. […] [Futaki, S.; Nakase, I.; Suzuki, T.; Youjun, Y.; Sugiura, Y. Biochemistry 2002, 41, 7925.; Vivès, E.; Brodin, P.; Lebleu, B. J. Biol. Chem. 1997, 272, 16010.] Furthermore, the extent of internalization increased in an incubation time-dependent manner, and it was observed that after just 10 min, the fluorescence intensity of cells treated with FD-2 was near saturation. […] Without wishing to be bound by theory, it is believed that the length of the spacer at the terminal generation of the dendrimer can not only control the uptake rate, [Wender, P. A.; Kreider, E.; Pelkey, E. T.; Steinman, L.; Rothbard, J. B.; VanDeusen, C. L. Org. Lett. 2005, 7, 4815.] but also regulate the subcellular localization of the molecule and its putative cargo. […]

fluorescein isothiocyanate [free FITC]
fluorescence of treated cells (control experiments): no
